# The NIST ThermoML archive (doi:10.1021/je400755x)
# ± gives the expanded uncertainty stated by the source.
# Settings: Liquid, Closed cell (Static) method
Compound,vapor or sublimation pressure (313.05 K),vapor or sublimation pressure (322.92 K),vapor or sublimation pressure (333 K),vapor or sublimation pressure (342.76 K),vapor or sublimation pressure (352.84 K),vapor or sublimation pressure (362.75 K),vapor or sublimation pressure (369.36 K),vapor or sublimation pressure (298.88 K),vapor or sublimation pressure (308.19 K),vapor or sublimation pressure (313.35 K),vapor or sublimation pressure (323.13 K),vapor or sublimation pressure (323.19 K),vapor or sublimation pressure (323.75 K),vapor or sublimation pressure (333.47 K),vapor or sublimation pressure (343.12 K),vapor or sublimation pressure (343.83 K),vapor or sublimation pressure (352.3 K),vapor or sublimation pressure (353.05 K),vapor or sublimation pressure (363.03 K),vapor or sublimation pressure (369.15 K)
"C=CCCC=C [1,5-hexadiene]",56 ± 20 kPa,78 ± 20 kPa,109 ± 20 kPa,147 ± 20 kPa,197 ± 20 kPa,256 ± 20 kPa,303 ± 20 kPa,,,,,,,,,,,,,
C=CCCl [3-chloro-1-propene],,,,,,,,55 ± 20 kPa,75 ± 20 kPa,90 ± 20 kPa,125 ± 20 kPa,126 ± 20 kPa,126 ± 20 kPa,173 ± 20 kPa,228 ± 20 kPa,233 ± 20 kPa,294 ± 20 kPa,301 ± 20 kPa,389 ± 20 kPa,454 ± 20 kPa
